Reference: patent US7101848B2, “Bicyclic oligopeptides” (Boehringer Ingelheim Pharma GmbH & Co. KG, priority 2002, dated 2006)
In brackets after ≈: the same amount, converted by molar mass. Where a SMILES comes first, the peptide text is derived from it. Bridges are numbered along the chain shown (N, C = ends).

Assays:
[1] = Solubility in buffer; format: physicochemical
Text: and the following solubilities:

[2] = Metabolic stability with rat liver microsomes; format: in vitro ADME; conditions: Rat Micros; substrate 1 μM, 37° C., up to 45 min
Procedure: (§1) Incubations with preparations of microsomes and cytosol and with plasma under conditions as described below are suitable to investigate the metabolic stability of test compounds (e.g. oxidative metabolism reactions and hydrolysis by esterases). The metabolic stability of the test compounds of examples 1 and 2 is investigated in liver microsomes and cytosol of humans, dogs and rats and in plasma of humans and rats.
(§2) Incubations of test compounds (final concentration: 1 μM) are performed with liver microsomes and cytosol (0.5 mg protein/ml) in Tris buffer (Tris-(hydroxymethyl)-aminomethane) pH 7.4 (0.1 M) containing magnesium chloride (5 mM) at 37° C. for up to 45 min in a total volume of 100 μl. The reaction is initiated by addition of β-nicotinamide adenine dinucleotide phosphate, reduced form (NADPH, 1 mM) and terminated by addition of acetonitrile. After vortex mixing and centrifugation the supernatants are analyzed.
(§3) The samples are analyzed by on-line solid phase extraction and reversed phase HPLC coupled to electro-spray ionization tandem mass spectrometry. The measurements are performed on a triple quad mass spectrometer Quattro II (Micromass, Manchester, UK). The instrument operates at nominal mass resolution in SIR-mode. The analytes are quantified by detection of their quasimolecular ions [M+2H]^2+ m/z 1019 (Example 1) and m/z 1026 (Example 2).

[3] = Metabolic stability with rat liver cytosol; format: in vitro ADME; conditions: 37° C., up to 45 min
Procedure: as §1, §2, §3

[4] = Stability in rat plasma; format: in vitro ADME; conditions: substrate 1 μM, 37° C., up to 45 min
Procedure: as §1
(§4) Incubations of test substrates (final concentration: 1 μM) are performed with human and rat plasma (heparin) containing 0.1 M Tris buffer pH 7.4. The reaction is initiated by addition of the test compound at 37° C. for up to 45 min and terminated by addition of acetonitrile. After vortex mixing and centrifugation the supernatants are analyzed.
as §3

[5] = Metabolic stability with dog liver microsomes; format: in vitro ADME; conditions: Dog Micros; substrate 1 μM, 37° C., up to 45 min
Procedure: as §1, §2, §3

[6] = Metabolic stability with dog liver cytosol; format: in vitro ADME; conditions: 37° C., up to 45 min
Procedure: as §1, §2, §3

[7] = Metabolic stability with human liver microsomes; format: in vitro ADME; conditions: Human Micros; substrate 1 μM, 37° C., up to 45 min
Procedure: as §1, §2, §3

[8] = Metabolic stability with human liver cytosol; format: in vitro ADME; conditions: 37° C., up to 45 min
Procedure: as §1, §2, §3

[9] = Stability in human plasma; format: in vitro ADME; conditions: plasma (heparin), pH 7.4, substrate 1 μM, 37° C., up to 45 min, read-out: Half-lives (t½)
Procedure: as §1, §4, §3

[10] = liver cytosol, pH 7.4, substrate 1 μM, read-out: Half-lives (t½)

Row | Structure (SMILES) | solubility ([1]; Buffer pH 3.0) [µg/mL] | solubility ([1]; Buffer pH 7.4) [µg/mL] | solubility ([1]; Buffer pH 10.0) [µg/mL] | Half-lives (t½) [2] | Half-lives (t½) ([3]; substrate 1 μM) | Half-lives (t½) [4] | Half-lives (t½) [5] | Half-lives (t½) ([6]; substrate 1 μM) | Half-lives (t½) [7] | Half-lives (t½) ([8]; substrate 1 μM) | half-life at 1 μM [9] [h] | half-life at 1 μM [3, 10] [h] | half-life at 1 μM [6, 10] [h] | half-life at 1 μM [8, 10] [h]
1 | CC[C@H](C)[C@@H]1NC(=O)[C@@H]2CC(=O)NCC(=O)N[C@@H](CC(C)C)C(=O)N3CCC[C@H]3C(=O)N[C@@H](Cc3c[nH]c4ccccc34)C(=O)NCC(=O)N[C@@H](CSSC[C@@H](C(=O)O)NC(=O)[C@H](C)NC(=O)[C@H](Cc3c[nH]c4ccccc34)NC(=O)[C@@H]3CCCN3C(=O)[C@H]([C@@H](C)O)NC(=O)[C@H](CC(N)=O)NC(=O)[C@H](Cc3c[nH]c4ccccc34)NC(=O)CNC(=O)[C@@H]3CCCN3C1=O)C(=O)N1CCC[C@H]1C(=O)N[C@@H](CO)C(=O)N2 [Example 1] (GLPWGCPSDIPGWNTPWAC-OH; disulfide 6-19; lactam N-9) | 3 (≈ 1.47 µM) | 120 (≈ 58.9 µM) | 92 (≈ 45.2 µM) | stable | stable | stable | stable | stable | stable | stable | 3.03 | – | – | –
2 | CC[C@H](C)[C@@H]1NC(=O)[C@@H]2CC(=O)NCC(=O)N[C@@H](CC(C)C)C(=O)N3CCC[C@H]3C(=O)N[C@@H](Cc3c[nH]c4ccccc34)C(=O)NCC(=O)N[C@@H](CSSC[C@@H](C(=O)OC)NC(=O)[C@H](C)NC(=O)[C@H](Cc3c[nH]c4ccccc34)NC(=O)[C@@H]3CCCN3C(=O)[C@H]([C@@H](C)O)NC(=O)[C@H](CC(N)=O)NC(=O)[C@H](Cc3c[nH]c4ccccc34)NC(=O)CNC(=O)[C@@H]3CCCN3C1=O)C(=O)N1CCC[C@H]1C(=O)N[C@@H](CO)C(=O)N2 [Example 2] (GLPWGCPSDIPGWNTPWAC-OMe; disulfide 6-19; lactam N-9) | 3 (≈ 1.46 µM) | 2 (≈ 0.975 µM) | 4 (≈ 1.95 µM) | stable | – | stable | stable | – | stable | – | 3 | 1.22 | 2.33 | 2.03
